Data: patent US8067009B1, “Metalloproteinase oligopeptides and their therapeutic use” (priority 2011, dated 2011)
Where no end group is shown, it is not given here.

Columns and labels:
anti-peptide mouse IgG = experiment: Anti-peptide immune response assay (Elisa) on serum of immunized mice; assay type: in vivo, Male C57BL/6 mice; details: for Elisa Test pep before B16FO given / Elisa Test pep after B16FO given: read at 450 nm
Description: In another embodiment, the synthesized oligopeptides were biotinylated at N-terminal using four carbon spacers by Genscript (Pitcataway, N.J. 08554 USA) and conjugated to KLH protein. In an experiment performed on mice animals were procured, immunized, tumor induced and observed for effectiveness of the treatment of oligopeptide-induced immunotherapy.
The injections were prepared using 100 μl l of KLH conjugated biotinylated peptides and 100 μl of complete Freund's adjuvant (Sigma, St. Louis, Mo.).
(§1) Male C57BL/6 mice 6 weeks of age on arrival were purchased from Simonsen Laboratories, Gilroy, Calif. and maintained in microisolator cage under pathogen-free conditions on a 12-h light/12-h dark schedule for a week. All animals were cared for in accordance with institutional guidelines for the care and use of experimental animals. After housing for a week, the mice (n=5/group) were immunized by intraperitoneal injection on Day 0, and incomplete Freund adjuvant (Sigma) on Day 7, 14 and 28. The blood samples were tested for their immune response by standard Elisa test using microtiter plates. Repeating injections of synthetic peptides in mice produce an immune response to specific individual peptides. Various dilutions were tried and examples of dilutions tried are 1:100, 1:1000 and 1:10000.
All four peptides were conjugated covalently to keyhole limpet hemocyanin (KLH) protein. In a typical experiment 1 mg of the peptide, 4 mg of KLH was dissolved in 5 ml of 0.01 M NaHCO3 and 2 μl of glutaraldehyde and stirred overnight. At the end 100 μl of 1M glycine ethyl ester to the final concentration of 0.1 M and left for 30 min at room temperature. Then precipitated with 4-5 vol of cold acetone at −70 C for 30 minute. Then briefly warmed at room temperature and pellet at 10,000 g for 10 min. The pellet was dissolved in 1 ml of 0.1M NaHCO3 and stored at −20° C.
Microtiter plates were coated with individual peptide in 100 µl/well […] carbonate buffer, pH 9.5 for 20 h at 20° C. After washing, wells were incubated with serial dilution of mouse serum in PBS/0.5% BSA, Tween 20 (binding buffer, BB). After washing, well were incubated with 100 µl/well rabbit anti-mouse IgG polyclonal antibody conjugated with horseradish peroxidase (HRP) in BB for 30 rain at 37° C. After washing, the titer of anti-peptide mouse IgG was determined by color reaction with TMB substrate solution at 450 nm.

[1] = tested on: human cervical cancer HeLa cells; experiment: Matrigel invasion with anti-sera from immunized mice; assay type: cell-based; details: anti-sera 1:100 dilution, 24 hours, FIGS. 3A-3D
Description: Human cervical cancer (Hela) and murine melanoma B16F0 cells obtained from ATCC (American Type Culture Collection, Rockville, Md.) were maintained in Dulbecco's modified Eagle's medium supplemented with 10% fetal bovine serum and antibiotics. The media and sera used were obtained from ATCC, and antibiotics (penicillin and streptomycin) were from Gibco BRL, Long Island, N.Y.
Invasion studies were conducted using Matrigel™ (Becton Dickinson) inserts in 24-well plates. Suspended in medium containing anti-sera from the experimental immunized mice 1:100 dilution, human cervical cancer HeLa cells seeded on the insert in the well. The well has human dermal fibroblast primed media as chemotaxtant. The plates with the inserts were then incubated in a culture incubator equilibrated with 95% air and 5% CO: for 24 hours. After incubation, the media from the wells were withdrawn. The cells on the upper surface of the insert were gently scrubbed away with cotton swabs. The cells that had penetrated the Matrigel™ membrane were stained with hematoxylin and eosin (H&E) and visually counted under the microscope.

[2] = tested on: murine melanoma B16F0 cells; experiment: Tumor growth after challenge of immunized mice with melanoma cells; assay type: in vivo, Male C57BL/6 mice; details: visual, FIG. 7 A-E
Text: as §1
After dosing the mice, on 45th day, mice were bleed through orbital puncture and blood was collected in 2-ml micro centrifuged tube. After testing for immune response against individual peptides, the mice in each group were inoculated subcutaneously with 0.5×10^6 in 0.2 ml PBS. After injection, the mice were returned the cages and fed regular Purina mouse chow diet. After four weeks, the mice were sacrificed and their tumors were excised. Dimensions (length and width) of tumors were measured using digital caliper, and tumor burden was calculated using the following formula: […].

[3] = column 5, serum dilution 1:1000
[4] = column 5, serum dilution 1:10000
[5] = column 6, serum dilution 1:1000
[6] = column 6, serum dilution 1:10000
[7] = column 7, serum dilution 1:1000
[8] = column 7, serum dilution 1:10000
[9] = column 8, serum dilution 1:1000
[10] = column 8, serum dilution 1:10000
[11] = column 9, serum dilution 1:1000
[12] = column 9, serum dilution 1:10000
[13] = column 10, serum dilution 1:100
[14] = column 10, serum dilution 1:1000
[15] = column 10, serum dilution 1:10000
[16] = column 11, serum dilution 1:100
[17] = column 11, serum dilution 1:1000
[18] = column 11, serum dilution 1:10000
[19] = column 12, serum dilution 1:100
[20] = column 12, serum dilution 1:1000
[21] = column 12, serum dilution 1:10000

Substance | Elisa Test pep before B16FO given (anti-peptide mouse IgG; column 5, serum dilution 1:100) | Elisa Test pep before B16FO given (anti-peptide mouse IgG; [3]) | Elisa Test pep before B16FO given (anti-peptide mouse IgG; [4]) | Elisa Test pep before B16FO given (anti-peptide mouse IgG; column 6, serum dilution 1:100) | Elisa Test pep before B16FO given (anti-peptide mouse IgG; [5]) | Elisa Test pep before B16FO given (anti-peptide mouse IgG; [6]) | Elisa Test pep before B16FO given (anti-peptide mouse IgG; column 7, serum dilution 1:100) | Elisa Test pep before B16FO given (anti-peptide mouse IgG; [7]) | Elisa Test pep before B16FO given (anti-peptide mouse IgG; [8]) | Elisa Test pep before B16FO given (anti-peptide mouse IgG; column 8, serum dilution 1:100) | Elisa Test pep before B16FO given (anti-peptide mouse IgG; [9]) | Elisa Test pep before B16FO given (anti-peptide mouse IgG; [10]) | Elisa Test pep after B16FO given (anti-peptide mouse IgG; column 9, serum dilution 1:100) | Elisa Test pep after B16FO given (anti-peptide mouse IgG; [11]) | Elisa Test pep after B16FO given (anti-peptide mouse IgG; [12]) | Elisa Test pep after B16FO given (anti-peptide mouse IgG; [13]) | Elisa Test pep after B16FO given (anti-peptide mouse IgG; [14]) | Elisa Test pep after B16FO given (anti-peptide mouse IgG; [15]) | Elisa Test pep after B16FO given (anti-peptide mouse IgG; [16]) | Elisa Test pep after B16FO given (anti-peptide mouse IgG; [17]) | further results
-C-H-F-P-F-I-F-E-G-R-S-Y-S-A-C- (CHFPFIFEGRSYSAC; cysteine pairing not given here; also: biotinylated, KLH conjugate) [MMP-9 A-1, MMP-9 oligopeptide, biotinylated and conjugated to KLH for immunization] | 3.898 | 3.402 | .394 | 3.868 | 1.901 | .274 | 3.843 | 1.033 | .228 | 3.895 | 2.127 | .330 | 3.897 | 3.624 | .645 | 3.864 | 1.875 | .244 | 3.820 | .999 | Elisa Test pep after B16FO given (anti-peptide mouse IgG; [18]): .226; Elisa Test pep after B16FO given (anti-peptide mouse IgG; [19]): 3.87; Elisa Test pep after B16FO given (anti-peptide mouse IgG; [20]): 2.01; Elisa Test pep after B16FO given (anti-peptide mouse IgG; [21]): .22; cells invading through the Matrigel compared to control [1]: more in number compared to MMP-9 A1 treated cells
-D-R-D-K-L-F-G-F-C-P-T-R-A-D-S- (DRDKLFGFCPTRADS; also: biotinylated, KLH conjugate) [MMP-9 A-3, MMP-9 oligopeptide, biotinylated and conjugated to KLH for immunization] | 3.775 | .394 | .159 | 3.810 | 2.157 | .631 | 1.991 | .272 | .159 | 3.812 | 2.281 | .267 | 3.776 | .448 | .167 | 3.814 | 1.332 | .209 | 2.063 | .448 | Elisa Test pep after B16FO given (anti-peptide mouse IgG; [18]): .158; Elisa Test pep after B16FO given (anti-peptide mouse IgG; [19]): 3.84; Elisa Test pep after B16FO given (anti-peptide mouse IgG; [20]): 2.34; Elisa Test pep after B16FO given (anti-peptide mouse IgG; [21]): .296; size of excised tumors [2]: one of the tumors have completely disappeared
-D-T-D-D-R-F-G-F- (DTDDRFGF; also: biotinylated, KLH conjugate) [M MP-9 A-2, MMP-9 oligopeptide, biotinylated and conjugated to KLH for immunization] | 3.581 | .646 | .224 | 3.863 | 1.339 | .261 | 3.870 | 2.856 | .477 | 3.238 | .360 | .175 | 3.635 | .526 | .203 | 3.609 | .859 | .235 | 3.465 | .277 | Elisa Test pep after B16FO given (anti-peptide mouse IgG; [18]): .161; Elisa Test pep after B16FO given (anti-peptide mouse IgG; [19]): 3.86; Elisa Test pep after B16FO given (anti-peptide mouse IgG; [20]): .274; Elisa Test pep after B16FO given (anti-peptide mouse IgG; [21]): .348
-C-P-R-K-P-K-W-D-K-C- (CPRKPKWDKC; cysteine pairing not given here; also: biotinylated, KLH conjugate) [MMP-2 A-4, MMP-2 oligopeptide, biotinylated and conjugated to KLH for immunization] | 1.485 | .650 | .220 | 2.409 | .974 | .257 | 1.811 | .771 | .208 | 1.649 | .289 | .168 | 1.836 | .706 | .290 | 3.172 | 1.286 | .313 | 2.278 | .775 | intensity of immune response (anti-peptide mouse IgG; 1:100 dilution): slightly less; Elisa Test pep after B16FO given (anti-peptide mouse IgG; [18]): .230; Elisa Test pep after B16FO given (anti-peptide mouse IgG; [19]): 1.621; Elisa Test pep after B16FO given (anti-peptide mouse IgG; [20]): .294; Elisa Test pep after B16FO given (anti-peptide mouse IgG; [21]): .167
